The values below come from US20120189677A1, “FORMULATIONS” (priority 2011, published 2012).

Series [1] is described as follows: Particle size analysis (FIG. 3). The class given is physicochemical. The settings on record: Brij35P 7.0% w/w, S-75 1% w/w, maltodextrin 2% w/w; 25:2 dilution.
Series [2] in a line: Clarity of surfactant/lipid compositions with or without maltodextrin (Example 2). The class given is physicochemical. To be noted: surfactant at % given in row, S-75 lipid, low temperature process; for Clarity with maltodextrin (2%): 2% maltodextrin; for Clarity without maltodextrin: no maltodextrin.
Series [3] can be described thus: Turbidity of surfactant added to standard maltodextrin/lipid emulsion at room temperature (Example 1). The class given is physicochemical. To be noted: surfactant 7% w/w in emulsion of 2% C* Dry MD 01958 maltodextrin and 1% S-75 lipid.
For series [4] the following is noted: approximate average of manufacturer and literature values; cited from earlier work.
Series [5] in a line: HLB values of surfactants (manufacturer/literature or equation). The class given is physicochemical. To be noted: from HLB=20[1-(S/A)], S 45.5, A 276.

Read-outs that look alike come from different tables or passages of the source.

As for Laureth-23 [Brij 35P], in series [1], the polydispersity was 0.625 and the principal/dominant particle size turned out to be 8.68 nm. Further, in series [2], the “Clarity with maltodextrin (2%)” value was 128.1 FNU and the Clarity without maltodextrin is 184 FNU.

As to Nonoxynol-9, the “Turbidity (FNU)” value in series [3] was found to be 8.87 FNU. In addition, the HLB in series [4] is 12.9.

Regarding Nonoxynol-10, the “Turbidity (FNU)” value in series [3] stood at 8.29 FNU. Moreover, the HLB in series [4] is reported as 13.6.

In the case of Nonoxynol-40, the “Turbidity (FNU)” value in series [3] was greater than 150 FNU. Moreover, the HLB in series [4] is 17.8.

On to Octoxynol-5, for which, in series [3], the “Turbidity (FNU)” value is greater than 150 FNU. In series [4], the HLB is 10.4.

In the case of Octoxynol-9, the “Turbidity (FNU)” value in series [3] worked out at 7.75 FNU.

For Octoxynol-12, the “Turbidity (FNU)” value in series [3] came out at 4.32 FNU. The HLB in series [4] is listed as 14.5.

Octoxynol-16: the “Turbidity (FNU)” value in series [3] turned out to be 7.55 FNU.

On to Octoxynol-30, for which, in series [3], the “Turbidity (FNU)” value is greater than 150 FNU. The HLB in series [4] was 17.1.

Consider Octoxynol-40, for which the “Turbidity (FNU)” value in series [3] is recorded as greater than 150 FNU. Also, the HLB in series [4] was 17.9.

Polysorbate-20 [Polysorbate 20]: in series [5], the HLB worked out at 16.7. Further, in series [2], the “Clarity with maltodextrin (2%)” value amounted to 59.5 FNU and the Clarity without maltodextrin stood at 79.5 FNU.
